From publication PMC8980233, “Differentiating the Neuropharmacological Properties of Nicotinic Acetylcholine Receptor-Activating Alkaloids” (Frontiers in Pharmacology, 2022)
Entries after “also recorded” stand apart in the source; their conditions may differ.

Tests used:
[1] = system: norepinephrine release from hippocampal synaptosomes; assay: In vitro [3H]norepinephrine release from crude hippocampal synaptosomes; format: biochemical, rat
Experimental: In vitro neurotransmitter assays using crude synaptosome preparations were conducted by Gifford Biosciences Limited (Birmingham, UK) based on the previously described protocols ([Clarke and Reuben, 1996]; [Gifford et al., 2000]). In brief, male Sprague Dawley rats (200–225 g) were terminated by cervical dislocation followed by decapitation. The striatums or hippocampi were dissected and homogenized in ice-cold 0.32 M sucrose using a Dounce homogenizer. The homogenates were centrifuged at 100 x g for 5 min to pellet cell debris. The supernatants were collected and centrifuged at 17,000 x g for 10 min at 4°C to pellet crude synaptosomes. The pellets were resuspended in 5 ml Krebs buffer, pH 7.4 (in mM (pH 7.4): 120 NaCl, 3.3 KCl, 1.2 MgSO4, 1.3 CaCl2, 1.2 K2HPO4, 25 HEPES, 11 glucose, 0.01 ascorbic acid, 0.025 pargyline, and 0.1% BSA containing 2 μCi/ml [^3H]norepinephrine for hippocampal synaptosomes or 1 μCi/ml [^3H]dopamine for striatal synaptosomes and incubated for 15 min at 35°C with gentle shaking.
The [^3H]norepinephrine- or [^3H]dopamine-treated crude synaptosomes were loaded onto closed filter chambers containing Whatman® Grade GF/C Glass Microfiber filters (Sigma-Aldrich, Merck KGaA, Darmstadt, Germany) and placed in a superfusion system. Preoxygenated Krebs buffer was perfused through the chambers at a rate of 1 ml/min at 37 °C using an 8-channel peristaltic pump. To ensure an even flow over the synaptosomal bed, trapped air bubbles were removed from the filters prior to collection of the fractions. After a superfusion period of 40 min, three basal fractions (1.5 ml/fraction) were collected first, followed by three fractions (1.5 ml/fraction) containing the test compound. Two additional fractions were collected in the presence of 30 mM KCl to depolarize the synaptosomes. A 0.4-ml aliquot of each fraction was then transferred to a counting plate, and a scintillation cocktail was added to measure the radioactivity using a Wallac® TriLux 1450 MicroBeta counter (PerkinElmer Life Sciences, Zaventem, Belgium). Once all fractions were collected, the filters holding the crude synaptosome samples were removed and dried overnight at room temperature. On the following day, the scintillation cocktail was added and the filters were counted to determine residual radioactivity.
Compound-evoked release of neurotransmitters was calculated by subtracting the counts per minute (CPM) in the two basal fractions collected immediately prior to compound addition from those in the two fractions collected immediately following compound addition. The compound-evoked release was then expressed as a percentage of the basal release from that chamber. Potassium-evoked release was calculated by subtracting the CPM in the fraction immediately prior to KCl addition from the CPM in the […] immediately following potassium addition. Stimulated release was calculated as the percentage of basal release for that chamber. The increase in stimulated release above the baseline (no compound) release for that experimental run was determined, and the latter values were plotted on the graphs. Dose–response curves were determined using non-linear curve fitting in Prism (GraphPad Software, Inc, San Diego, CA, United States). All experiments were repeated at least three times.

α3β4 nAChR = α3β4 nAChR (Homo sapiens, UniProt P30926+P32297); assay: nAChR functional assay, automated patch-clamp; format: cell-based
Chain of α3β4 nAChR (P32297 32-505): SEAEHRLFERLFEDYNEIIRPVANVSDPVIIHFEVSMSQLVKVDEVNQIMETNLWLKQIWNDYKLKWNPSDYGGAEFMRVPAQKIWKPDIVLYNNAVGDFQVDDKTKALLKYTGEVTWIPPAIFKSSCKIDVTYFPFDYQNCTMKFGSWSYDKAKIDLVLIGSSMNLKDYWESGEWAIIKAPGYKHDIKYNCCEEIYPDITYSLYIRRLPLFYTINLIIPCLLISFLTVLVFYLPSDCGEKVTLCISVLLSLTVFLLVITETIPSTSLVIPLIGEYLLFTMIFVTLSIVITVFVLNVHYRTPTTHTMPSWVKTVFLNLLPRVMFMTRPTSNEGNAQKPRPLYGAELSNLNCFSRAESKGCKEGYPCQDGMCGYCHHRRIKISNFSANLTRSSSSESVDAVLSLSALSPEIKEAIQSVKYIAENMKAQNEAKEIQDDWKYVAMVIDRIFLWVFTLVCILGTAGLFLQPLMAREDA
Chain of α3β4 nAChR (P30926 22-498): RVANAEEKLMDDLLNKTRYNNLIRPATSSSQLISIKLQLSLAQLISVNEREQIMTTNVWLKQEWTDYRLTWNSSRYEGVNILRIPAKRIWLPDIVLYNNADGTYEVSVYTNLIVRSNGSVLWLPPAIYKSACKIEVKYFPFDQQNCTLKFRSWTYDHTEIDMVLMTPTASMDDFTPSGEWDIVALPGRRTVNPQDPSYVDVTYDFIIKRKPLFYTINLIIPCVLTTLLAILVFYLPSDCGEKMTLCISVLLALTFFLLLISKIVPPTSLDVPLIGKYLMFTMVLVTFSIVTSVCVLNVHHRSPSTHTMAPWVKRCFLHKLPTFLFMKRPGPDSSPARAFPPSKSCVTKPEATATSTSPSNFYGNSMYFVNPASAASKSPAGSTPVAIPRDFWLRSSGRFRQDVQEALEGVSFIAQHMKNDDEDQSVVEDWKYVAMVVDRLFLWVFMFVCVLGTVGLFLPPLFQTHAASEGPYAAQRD
Experimental: The following selection antibiotics were used for the cell lines: G418 (0.25 mg/ml; Sigma-Aldrich) and Zeocin^TM (0.4 mg/ml; InvivoGen, San Diego, CA, United States) for α7/Ric3 nAChR and α3β4 nAChR cells; puromycin (8 μg/ml; InvivoGen) and hygromycin B (0.4 mg/ml; Gibco) for α4β2 nAChR cells; and G418 (0.5 mg/ml), puromycin (0.25 μg/ml), and hygromycin B (0.02 mg/ml) for α6/3β2/β3 nAChR cells. […] The human nAChRs were selected due to the lack of commercially available nAChR expression systems for mouse or zebrafish.
Data were analyzed using the Patchmaster software and corrected for leak current. The data acceptance criteria were as follows: seal resistance >100 MΩ; seal resistance loss variation <50%; access resistance <20 MΩ; and minimum current amplitude elicited by maximal effect concentration acetylcholine >50 pA. Offline data analysis was performed in OpenOffice™ (v4.1.2; The Apache Software Foundation, Wakefield, MA, United States). […] Igor Pro (v6.2.2.2; WaveMetrics, Lake Oswego, OR, United States) or Prism (v8.2.1) were used for assessing the concentration–response curves.

α4β2 nAChR = α4β2 nAChR (Homo sapiens, UniProt P17787+P43681); assay: Radioligand displacement binding assay
Chain of α4β2 nAChR (P43681 29-627 limits assumed): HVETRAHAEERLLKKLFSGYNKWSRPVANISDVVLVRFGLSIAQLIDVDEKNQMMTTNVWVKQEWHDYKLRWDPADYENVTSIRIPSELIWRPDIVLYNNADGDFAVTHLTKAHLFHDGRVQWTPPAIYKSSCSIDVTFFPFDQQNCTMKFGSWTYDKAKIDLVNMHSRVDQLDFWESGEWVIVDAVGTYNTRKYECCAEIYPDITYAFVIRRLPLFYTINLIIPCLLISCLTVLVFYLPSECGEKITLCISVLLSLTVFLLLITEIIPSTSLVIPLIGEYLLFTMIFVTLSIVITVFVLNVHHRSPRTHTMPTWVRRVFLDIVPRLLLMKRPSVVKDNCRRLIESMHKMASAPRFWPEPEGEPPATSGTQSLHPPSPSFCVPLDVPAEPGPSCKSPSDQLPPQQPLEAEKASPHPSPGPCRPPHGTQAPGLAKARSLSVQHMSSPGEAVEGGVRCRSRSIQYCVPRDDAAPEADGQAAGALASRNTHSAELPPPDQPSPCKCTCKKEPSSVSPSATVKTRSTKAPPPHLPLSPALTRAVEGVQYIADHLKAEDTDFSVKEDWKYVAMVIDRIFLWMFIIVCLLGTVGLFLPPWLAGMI
Chain of α4β2 nAChR (P17787 26-502): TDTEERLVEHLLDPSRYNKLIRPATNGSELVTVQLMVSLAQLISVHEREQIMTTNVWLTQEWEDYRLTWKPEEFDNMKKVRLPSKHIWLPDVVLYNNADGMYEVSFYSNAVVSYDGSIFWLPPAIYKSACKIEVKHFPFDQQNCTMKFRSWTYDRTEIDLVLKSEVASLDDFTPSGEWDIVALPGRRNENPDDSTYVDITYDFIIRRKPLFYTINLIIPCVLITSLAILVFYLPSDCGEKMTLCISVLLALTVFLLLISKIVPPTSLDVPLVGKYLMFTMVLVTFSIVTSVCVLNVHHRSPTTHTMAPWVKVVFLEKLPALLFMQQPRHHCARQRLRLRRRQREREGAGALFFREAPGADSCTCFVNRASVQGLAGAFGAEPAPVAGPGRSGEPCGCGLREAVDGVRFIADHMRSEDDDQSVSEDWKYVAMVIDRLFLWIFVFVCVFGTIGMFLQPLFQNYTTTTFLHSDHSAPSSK
Experimental: (§1) All binding and functional assays for molecular target characterization were conducted by Eurofins Cerep SA (Celle-Lévescault, France) and Eurofins Panlabs Discovery Services Taiwan, Ltd. (New Taipei City, Taiwan) using their standard in vitro binding and functional assays (Supplementary Material S2). […] Negative values were considered to be an artifact arising from, for example, compounds interfering with the assay readout.
(§2) The radioligand displacement binding assays employed the gold standard filtration method using membrane preparations from stable cell lines (HEK-293 or CHO cells) expressing human or rodent target proteins to determine the interaction of the compounds with specific receptors, channels, and transporters. For this purpose, the competitive binding of test compounds against a [^125I]- [^3H]-, or [^35S]-labelled agonist and/or antagonist was determined.
(§3) Assay Source Ligand Conc. Kd Non Specific Incubation Detection Bibl.
(§4) N neuronal α7 (h) SH-SY5Y cells [125I]α-bungarotoxin 0.05 nM 0.34 nM α-bungarotoxin 120 min Scintillation 347
(§5) (antagonist radioligand) (human (1 µM) 37°C counting

α7 nAChR = α7 nAChR (Homo sapiens, UniProt P36544); assay: Radioligand displacement binding assay
Chain of α7 nAChR (P36544 23-502): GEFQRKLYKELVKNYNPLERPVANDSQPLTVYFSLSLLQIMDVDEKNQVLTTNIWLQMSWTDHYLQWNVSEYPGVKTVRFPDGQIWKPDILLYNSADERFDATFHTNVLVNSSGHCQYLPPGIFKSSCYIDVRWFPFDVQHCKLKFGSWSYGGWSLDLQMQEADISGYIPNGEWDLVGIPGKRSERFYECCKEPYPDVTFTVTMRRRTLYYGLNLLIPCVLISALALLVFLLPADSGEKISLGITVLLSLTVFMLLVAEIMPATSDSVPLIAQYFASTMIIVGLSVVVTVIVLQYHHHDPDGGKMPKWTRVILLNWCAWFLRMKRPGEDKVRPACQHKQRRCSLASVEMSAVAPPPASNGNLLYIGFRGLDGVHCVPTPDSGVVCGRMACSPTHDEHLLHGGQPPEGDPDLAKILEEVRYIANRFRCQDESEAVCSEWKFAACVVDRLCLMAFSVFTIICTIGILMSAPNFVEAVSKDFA
Experimental: as §1, §2, §3, §4, §5

[2] = mean ± S.D., no effect = up to 33 μM

In the case of C1=CCC(c2cccnc2)NC1 (racemic) [Anatabine, (±)-Anatabine], the “increase in norepinephrine release” value ([1]; at the higher doses) is reported as ~20%, the EC50 (α3β4 nAChR; [2]) is reported as 70.6 ± 8.2 µM and the “% of the full receptor activity, α3β4 nAChR” value (α3β4 nAChR; preliminary, data not shown) is reported as ~40%.
For CN1CCC[C@H]1c1cccnc1 [Nicotine, (-)-Nicotine], the EC50 ([1]; hippocampal synaptosomes) was 4.22 µM.
For CN1C(=O)CC[C@H]1c1cccnc1 [Cotinine, (-)-cotinine], the “α3β4 nAChR EC50 in µM” value (α3β4 nAChR; [2]) was “no detectable activities; also recorded: No effect *”, the “binding for α4β2 nAChR” value (α4β2 nAChR) was “barely detectable” and the “binding for α7 nAChR” value (α7 nAChR) was “undetectable”.
